Here are results for ten compounds from patent publication US20230002361A1, “2H-INDAZOLE DERIVATIVES AND THEIR USE IN THE TREATMENT OF DISEASE” (BIOGEN MA INC., priority 2019, published 2023).

For data set [1], the target named is T1, IRAK4 (Homo sapiens, UniProt Q9NWZ3).
T1 construct: with 0.1 nM IRAK4, 1.6 μM of biotinylated peptide substrate and 10 μM ATP
T1 sequence (Q9NWZ3 1-460): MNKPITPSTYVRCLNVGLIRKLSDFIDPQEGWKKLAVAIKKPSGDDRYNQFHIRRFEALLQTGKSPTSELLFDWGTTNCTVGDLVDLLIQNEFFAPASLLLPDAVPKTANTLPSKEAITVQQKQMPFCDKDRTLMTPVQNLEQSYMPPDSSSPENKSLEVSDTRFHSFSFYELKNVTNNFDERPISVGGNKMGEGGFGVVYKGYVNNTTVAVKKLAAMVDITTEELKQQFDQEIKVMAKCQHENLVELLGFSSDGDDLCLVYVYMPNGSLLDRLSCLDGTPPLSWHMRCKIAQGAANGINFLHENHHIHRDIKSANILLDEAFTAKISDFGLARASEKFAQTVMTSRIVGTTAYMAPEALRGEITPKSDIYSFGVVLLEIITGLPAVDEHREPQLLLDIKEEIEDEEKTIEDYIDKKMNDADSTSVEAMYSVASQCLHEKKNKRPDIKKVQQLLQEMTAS
As to the kind of experiment: IRAK4 MSD Biochemical Assay (1 mM ATP, 2 h). Particulars: room temperature, read-out: IRAK4 MSD Biochemical Assay (1 mM ATP, 2 h) IC50. The gist of the method: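 Run with 1 mM ATP and […] for 2 h, then quenched with EDTA, pH 8. The phosphorylated biotinylated peptide was captured on streptavidin plates and detected with anti-phospho-threonine antibody plus Sulfo-Tag secondary by MSD electrochemiluminescence.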

Data set [2] has as its target T2, human MDR1 transfected MDCK cells (Homo sapiens, UniProt P08183).
T2 construct: host or cells: MDCK cells
As to the kind of experiment: MDR1-MDCK assay (efflux ratio). It counts as in vitro ADME. Particulars: 1 μM compound, 120 minutes incubation. The gist of the method: (§1)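 Human MDR1-transfected MDCK monolayers, cultured 7 days on transwell inserts with TEER checked, were dosed with compound at 1 μM in HBSS-HEPES. Transport was measured in both A-B and B-A directions. Efflux ratio came from the directional permeabilities, with mass balance also calculated.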

Data set [3] addresses T1, IRAK4. As to the kind of experiment: IRAK4 MSD Biochemical Assay (10 μM ATP, 2 h). Conditions: 0.1 nM IRAK4, 2 h, room temperature. Here is the method:
The 2-hour 10 μM ATP Biochemical Assay employs a MesoScale Detection (MSD) format. The kinase reaction is based on the IRAK4 phosphorylation of a biotin labeled peptide (IRAK1 activation loop sequence 360-389).
The kinase reaction in 30 μl is carried out in wells of a 384 well polypropylene assay plate, with 0.1 nM IRAK4, 1.6 μM of biotinylated peptide substrate and 10 μM ATP in 50 mM Hepes, pH 7.5, 60 mM NaCl, 5 mM MgCl2, 0.25 mM MnCl2, 2 mM DTT, 0.01% BSA, 0.01% BSA, and 1% DMSO (from compound DMSO stocks), for 2 hour at room temperature. The activity is quenched with 11 μl of 70 mM EDTA, pH 8.
To detect the phosphorylated biotinylated peptide substrate, 30 μl of the quenched reaction mixture is added to equivalent wells of a 384 well streptavidin coated MesoScale plate (Meso Scale Discovery #L21SA-1). After a 1 hour incubation of the plate for 1 hour at room temperature with gentle mixing, the plate wells are washed 3 times with 50 mM Tris, pH 7.5, 150 mM NaCl, 0.02% Tween-20.
A 25 μl volume of 1:500 anti-P-Threonine Rabbit polyclonal Antibody plus 1:500 Goat-anti-Rabbit Sulfo Tag Antibody (Meso Scale Discovery R32AB-1) in 50 mM Tris, pH 7.5, 150 mM NaCl, 0.02% Tween-20 plus 2% BSA is then added to each well. After a 1-hour incubation of the plate for 1 hour at room temperature with gentle mixing, the plate wells are washed, 3 times with 50 mM Tris, pH 7.5, 150 mM NaCl, 0.02% Tween-20. A 40 μl volume of 2×MSD Read Buffer (Meso Scale Discovery R92TC-1) is added to each well, and the plate is read immediately in an MSD Plate Reader (Meso Scale Discovery).

Data set [4] concerns the target T3, MDR1 (P-gp) (Homo sapiens, UniProt P08183).
T3 construct: host or cells: MDCK cells
As to the kind of experiment: MDR1-MDCK assay (efflux ratio). It counts as in vitro ADME. Conditions: human, MDCK-MDR1, 1 μM compound, 120 minutes incubation; read-out: MDR1-MDCK Efflux Ratio; (B-A/A-B). A digest of the protocol:
as §1

T3 sequence (P08183 whole entry): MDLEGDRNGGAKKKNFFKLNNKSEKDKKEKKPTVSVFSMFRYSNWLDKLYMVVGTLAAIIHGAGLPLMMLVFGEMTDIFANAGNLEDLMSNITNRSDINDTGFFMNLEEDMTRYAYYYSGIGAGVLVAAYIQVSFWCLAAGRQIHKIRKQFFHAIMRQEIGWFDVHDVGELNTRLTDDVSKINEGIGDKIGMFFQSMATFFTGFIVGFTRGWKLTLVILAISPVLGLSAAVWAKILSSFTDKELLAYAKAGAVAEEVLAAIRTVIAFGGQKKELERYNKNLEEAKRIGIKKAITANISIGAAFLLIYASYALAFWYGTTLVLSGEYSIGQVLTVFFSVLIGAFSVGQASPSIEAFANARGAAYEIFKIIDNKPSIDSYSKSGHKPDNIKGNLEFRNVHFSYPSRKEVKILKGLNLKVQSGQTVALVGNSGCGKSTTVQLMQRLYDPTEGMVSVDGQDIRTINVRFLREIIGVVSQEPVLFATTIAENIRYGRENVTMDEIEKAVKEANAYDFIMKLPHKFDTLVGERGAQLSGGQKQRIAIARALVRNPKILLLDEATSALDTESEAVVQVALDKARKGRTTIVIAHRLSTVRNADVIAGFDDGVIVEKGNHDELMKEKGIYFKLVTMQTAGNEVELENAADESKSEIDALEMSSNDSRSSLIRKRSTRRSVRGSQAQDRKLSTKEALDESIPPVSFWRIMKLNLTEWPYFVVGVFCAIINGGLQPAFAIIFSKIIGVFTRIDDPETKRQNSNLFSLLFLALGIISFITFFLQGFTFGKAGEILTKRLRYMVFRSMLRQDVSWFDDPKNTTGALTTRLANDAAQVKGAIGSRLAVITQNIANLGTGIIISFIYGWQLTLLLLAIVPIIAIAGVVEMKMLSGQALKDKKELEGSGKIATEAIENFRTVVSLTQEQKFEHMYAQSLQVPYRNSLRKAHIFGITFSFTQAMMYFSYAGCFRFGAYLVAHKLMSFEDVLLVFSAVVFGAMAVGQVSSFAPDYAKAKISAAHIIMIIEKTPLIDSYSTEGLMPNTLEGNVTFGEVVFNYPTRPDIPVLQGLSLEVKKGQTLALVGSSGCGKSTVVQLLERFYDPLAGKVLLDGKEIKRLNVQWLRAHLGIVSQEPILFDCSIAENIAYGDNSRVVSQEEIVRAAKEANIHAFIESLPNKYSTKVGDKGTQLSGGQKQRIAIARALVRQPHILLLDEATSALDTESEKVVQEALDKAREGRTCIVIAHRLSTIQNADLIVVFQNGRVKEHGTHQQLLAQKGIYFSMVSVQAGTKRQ
T2 sequence (P08183 whole entry): as above

`Cc1cnc2c(NC(=O)c3cc4cn(C5CCCOC5)nc4nc3OC3CCC3)cnn2c1` (single isomer, unassigned) [Example 132]: the IC50 (as a rule, the midpoint of a concentration-inhibition curve) in data set [1] stood at 0.1 nM. Further, the “MDR1-MDCK Efflux Ratio; (B-A/A-B)” value in data set [2] stood at 2.0.

In data set [3], `COCCn1cc2cc(C(=O)Nc3cccc(C(F)F)n3)c(OC)cc2n1` [Example 10, N-(6-(difluoromethyl)pyridin-2-yl)-6-methoxy-2-(2-methoxyethyl)-2H-indazole-5-carboxamide] gave a concentration for half-maximal inhibition (IC50) of 26 nM. In addition, in data set [4], the efflux ratio at 120 min, 1 μM came out at 0.9.

Take `COc1cnc2c(NC(=O)c3cc4cn([C@]56CC[C@](C)(C5)OC6)nc4cc3OC(C)C)cnn2c1` (single isomer, unassigned) [Example 136]: in data set [1], the half-inhibitory concentration (IC50) was 1.4 nM. Besides, in data set [2], the “MDR1-MDCK Efflux Ratio; (B-A/A-B)” value was 2.3.

`Cc1ccn2ncc(NC(=O)c3cc4cn(C5CCCOC5)nc4nc3OC3CCC3)c2n1` (single isomer, unassigned) [Example 134]: the IC50 in data set [1] was 1 nM. Also, in data set [2], the “MDR1-MDCK Efflux Ratio; (B-A/A-B)” value came out at 2.1.

Consider `COc1cc2nn(CC3CCOC3)cc2cc1C(=O)Nc1cccc(C(F)F)n1` (stereo not shown) [Example 11, N-(6-(difluoromethyl)pyridin-2-yl)-6-methoxy-2-((tetrahydrofuran-3-yl)methyl)-2H-indazole-5-carboxamide], for which the IC50 was 6.8 nM in data set [1] and 2 nM in data set [3]. Moreover, the efflux ratio at 120 min, 1 μM in data set [4] was 1.1.

Turning to `COc1cc2nn(CCC(C)(C)OC)cc2cc1C(=O)Nc1cccc(C(F)F)n1` [Example 12, N-(6-(difluoromethyl)pyridin-2-yl)-6-methoxy-2-(3-methoxy-3-methylbutyl)-2H-indazole-5-carboxamide], the IC50 in data set [1] was determined as 5.5 nM; in data set [3], 2 nM. For the same compound, in data set [4], the efflux ratio at 120 min, 1 μM amounted to 1.4.

For “6-Ethoxy-N-(2-methoxypyridin-3-yl)-2-(1-methyl-2-oxabicyclo[2.1.1]hexan-4-yl)-2H-indazole-5-carboxamide tfifluoroacetate [Example 85]”, the half-inhibitory concentration (IC50) in data set [1] amounted to 0.9 nM. In data set [2], the “MDR1-MDCK Efflux Ratio; (B-A/A-B)” value is reported as 0.8.

For the compound `COc1cnc2c(NC(=O)c3cc4cn([C@@]56CC[C@@](C)(C5)OC6)nc4cc3OC(C)C)cnn2c1` (single isomer, unassigned) [Example 135], the IC50 in data set [1] was 0.6 nM. Moreover, the “MDR1-MDCK Efflux Ratio; (B-A/A-B)” value in data set [2] is 2.3.

Consider `CC12CCC(n3cc4cc(C(=O)Nc5cnn6cccnc56)c(OC5CCC5)cc4n3)(CO1)C2` (single isomer, unassigned) [Example 138], for which the concentration for half-maximal inhibition (IC50) in data set [1] came to 0.2 nM. Besides, in data set [2], the “MDR1-MDCK Efflux Ratio; (B-A/A-B)” value is given as 1.7.

Regarding `CC(C)Oc1cc2nn(C3CCOCC3)cc2cc1C(=O)Nc1cccn2nccc12.Cl` [Example 71, 6-Isopropoxy-N-(pyrazolo[1,5-a]pyridin-4-yl)-2-(tetrahydro-2H-pyran-4-yl)-2H-indazole-5-carboxamide hydrochloride], the IC50 in data set [1] worked out at 6.6 nM. Further, in data set [4], the efflux ratio at 120 min, 1 μM came out at 1.6.
